Source: patent US7572888B2, “Methods of assaying receptor activity and constructs useful in such methods” (Duke University, priority 1997, dated 2009)

How the values were obtained:
[1] = Rectal body temperature after morphine; type: in vivo, mouse; conditions: after morphine treatment
μOR = conditions: cited from earlier work
μ opioid receptor (μOR) = μ opioid receptor (μOR) (Mus musculus, UniProt P42866); conditions: given before morphine, wild type and βarr2-KO mice (data not shown)
Method: The “response” was defined by the animal either licking the fore- or hind-paws or flicking the hind-paws. […] To avoid tissue damage the animals were not exposed to the plate for more than 30 seconds. […] WT (n=6), heterozygotes (+/−, n=5) and KO (n=9) mice were analyzed together in the same experiment.
The degree of antinociception was determined by measuring latency of hot plate (56° C.) responses (FIG. 2). […] After 10 min., antinociception was assessed once more. […] Means±S.E.M. are shown.
After 30 minutes or 2 hours, wild-type mice were killed and blood was collected in vials containing sodium fluoride and potassium-oxalate.

dopamine receptor = assay: Locomotor responses to dopamine receptor stimulation; type: in vivo, mouse; conditions: data not shown
Text: For example, locomotor responses to dopamine receptor stimulation by cocaine and apornorphine were not enhanced (data not shown). […] Other regulatory elements, such as GRKs or βarrestin-1, could compensate for the lack of βarrestin-2, or the receptors could vary in their requirement for βarrestin interaction for their regulation.

μORs = molecular target: T1, μORs (Mus musculus, UniProt P42866); assay: Agonist-stimulated [35S]GTPγS binding to periaqueductal gray membranes; type: biochemical; conditions: PAG membranes, 50-10,000 nM, 2 hour, 30° C.
T1 construct: from tissue; host or cells: crude membranes of mouse hypothalamus, brain stem and periaqueductal gray
T1 sequence (P42866 whole entry): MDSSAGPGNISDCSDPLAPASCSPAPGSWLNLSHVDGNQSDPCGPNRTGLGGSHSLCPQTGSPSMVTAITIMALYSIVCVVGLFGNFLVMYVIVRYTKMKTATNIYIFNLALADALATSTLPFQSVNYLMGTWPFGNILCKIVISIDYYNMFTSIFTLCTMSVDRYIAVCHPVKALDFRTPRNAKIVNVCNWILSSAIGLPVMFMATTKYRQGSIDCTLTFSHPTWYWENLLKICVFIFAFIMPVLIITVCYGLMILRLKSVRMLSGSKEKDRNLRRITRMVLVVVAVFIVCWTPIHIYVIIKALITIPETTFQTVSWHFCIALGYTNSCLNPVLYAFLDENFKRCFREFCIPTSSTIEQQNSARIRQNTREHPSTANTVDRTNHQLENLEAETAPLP

Chain of μ opioid receptor (μOR) (P42866 whole entry): as above

With `CN1CC[C@]23c4c5ccc(O)c4O[C@H]2[C@@H](O)C=C[C@H]3[C@H]1C5` [morphine] as the compound, how does the “change in body temperature, βarr2-KO vs wild-type” value [1] read?
Its value is “greater drop in body temperature”.

What about the “internalization of the μOR” value (μOR; transfected cells, rat μOR or mouse MOR1) of the same compound?
The value was “fails to induce the internalization of the μOR”.

What about the “translocation of GFP-tagged βarrestin-2 to μOR” value (μOR; μOR overexpressed in cell culture, exposure to morphine) of the same compound?
The value was “fails to translocate”.

For `Oc1ccc2c3c1O[C@H]1c4[nH]c5ccccc5c4C[C@@]4(O)[C@@H](C2)N(CC2CC2)CC[C@]314` [naltrindole], which “inhibition of morphine analgesia” value (μ opioid receptor (μOR)) is on record?
The value was “did not inhibit analgesia”.

Which “inhibition of morphine analgesia” value (μ opioid receptor (μOR)) does the source give for `Oc1ccc2c3c1O[C@H]1c4[nH]c5c(c4C[C@@]4(O)[C@@H](C2)N(CC2CC2)CC[C@]314)C[C@@]1(O)[C@H]2Cc3ccc(O)c4c3[C@@]1(CCN2CC1CC1)[C@H]5O4` [nor-binaltorphimine] here?
Its value is “did not inhibit analgesia”.

For `CN1CCc2cccc3c2[C@H]1Cc1ccc(O)c(O)c1-3` [apornorphine], which “locomotor responses in βarr2-KO vs wild type” value (dopamine receptor) is on record?
The value was “not enhanced”.

With `C[C@@H](NC(=O)[C@@H](N)Cc1ccc(O)cc1)C(=O)NCC(=O)N(C)[C@@H](Cc1ccccc1)C(=O)NCCO` [DAMGO, [D-Ala^2, MePhe^4, Gly^5-ol]enkephalin] as the compound, how does the “[35S]GTPγS binding in βarr2-KO membranes compared to wild-type” value (μORs) read?
The value was “stimulated more [^35S]GTPγS binding”.
